Results on three substances are retold here after US10568828B2, “Peptide having hair growth-promoting activity and use thereof” (CAREGEN CO., LTD., priority 2016, dated 2020).

Common to all, as to type: cell-based
For experiment [1], the system named is Human hair follicle dermal papilla cells. Nature of the experiment: DPC proliferation assay (MTT). The following applies: serum-free medium, 3 days incubation, absorbance 550 nm. As to the method:
Human hair follicle dermal papilla cells were seeded at a density of 2×10^3 cells/well on 96-well plates, followed by incubation overnight. After changing into serum-free medium, the cells were treated with the peptides, followed by incubation for 3 days, and then the wells were treated with 4 mg/ml MTT solution, followed by reaction for 4 hours. The resulting formazan was solubilized with DNSO, and then the absorbance was measured at 550 nm using a microplate reader.

In the next experiment the test system is β-catenin. Nature of the experiment: β-Catenin activation test (Western blot of nuclear protein). The following applies: human hair follicle dermal papilla cells, 15 and 30 minutes, Western blot of nuclei. As to the method:
Human hair follicle dermal papilla cells were seeded at a density of 4×10^5 cells/well on 6-well plates, followed by incubation overnight. After changing into serum-free medium, the cells were treated with the peptides, followed by incubation for 15 and 30 minutes, and then the wells were harvested to isolate nuclear and cytoplasmic proteins. Western blotting was performed using β-catenin (Santa Cruz Biotechnology, USA) to compare β-catenin expression patterns in nuclei.

In the next experiment the test system is KGF. As to the kind of experiment: KGF RT-PCR. The following applies: human hair follicle dermal papilla cells, 24 hours. As to the method: (§1) Human hair follicle dermal papilla cells were seeded at a density of 4×10^5 cells/well on 6-well plates, followed by incubation overnight. After changing into serum-free medium, the cells were treated with the peptides, followed by incubation for 24 hours, and then the wells were harvested to isolate RNA. After RNA quantification, cDNA synthesis was conducted using the cDNA synthesis kit (Intron, Korea), followed by PCR using PCR premix (Intron, Korea) and respective KGF, bFGF, and VEGF primers, and then electrophoresis was performed on 5% agarose gel to compare the mRNA expression levels of the growth factors for each sample treatment conditions.

The test system of another experiment is bFGF. As to the kind of experiment: bFGF RT-PCR. The following applies: human hair follicle dermal papilla cells, 24 hours. Here is the method: as §1
The next experiment concerns PI3K. Nature of the experiment: PI3K Western blot. The note with it: human hair follicle dermal papilla cells, 15 and 30 minutes. Here is the method:
(§2) Human hair follicle dermal papilla cells were seeded at a density of 4×10^5 cells/well on 6-well plates, followed by incubation overnight. After changing into serum-free medium, the cells were treated with the peptides, followed by incubation for 15 and 30 minutes, and then the wells were harvested to prepare cell lysates. Western blotting was performed using PI3K antibodies (Santa Cruz Biotechnology, USA) and phospho-ERK antibody (Cell Signaling Technology, USA) to compare protein expression patterns.

Another experiment concerns ERK. Nature of the experiment: p-ERK Western blot. The following applies: human hair follicle dermal papilla cells, 15 and 30 minutes. As to the method: as §2
The next experiment relates to TGF-β1. As to the kind of experiment: TGF-β1 RT-PCR. The note with it: human hair follicle dermal papilla cells, 24 hours. Here is the method:
as §1, with “separate” for “isolate”, “TGF-β1” for “respective KGF, bFGF, and VEGF”, “levels” for “levels of the growth factors”

The next experiment relates to Bcl-2. As to the kind of experiment: Bcl-2 Western blot. The note with it: human hair follicle dermal papilla cells, 24 hours. Here is the method: (§3) Human hair follicle dermal papilla cells were seeded at a density of 4×10^5 cells/well on 6-well plate, followed by incubation overnight. After changing into serum-free medium, the cells were treated with the peptides, followed by incubation for 24 hours, and then the wells were harvested to prepare cell lysates. Western blotting was performed using Bcl-2 and Bax antibodies (Santa Cruz Biotechnology, USA) to compare protein expression patterns.

A further experiment relates to Bax. As to the kind of experiment: Bax Western blot. The note with it: human hair follicle dermal papilla cells, 24 hours. As to the method: as §3
The next experiment has as its system keratin-14. Nature of the experiment: Keratin-14 RT-PCR. The following applies: human hair follicle dermal papilla cells, 24 hours. Here is the method: as §1, with “5×10^5” for “4×10^5”, “keratin” for “respective KGF, bFGF, and VEGF”, “levels” for “levels of the growth factors”, “respective” for “each”
In another experiment the test system is VEGF. As to the kind of experiment: VEGF RT-PCR. The note with it: human hair follicle dermal papilla cells, 24 hours. Here is the method:
as §1

In a further experiment the test system is MSX2. As to the kind of experiment: MSX2 RT-PCR. The note with it: human hair follicle dermal papilla cells, 24 hours. Here is the method: as §1, with “MSX2” for “respective KGF, bFGF, and VEGF”, “levels” for “levels of the growth factors”

Ends that are not written are not given here.

With Arg-Arg-Lys-Ile (RRKI) [SEQ ID NO: 1], the “growth of human hair follicle dermal papilla cells” value (“growth” below) in experiment [1] is on record as “stimulated in a dose-dependent manner”. In addition, in the experiment on β-catenin, the “nuclear translocation due to the increase in activity of β-catenin” value is “stimulated”. For the same substance, in the experiment on KGF, the “mRNA expression of KGF” value was “increased”. Besides, the “mRNA expression of bFGF” value in the experiment on bFGF was “increased”. The PI3K expression entry in the experiment with PI3K is reported as “increase”. For the same substance, the ERK phosphorylation result in the experiment on ERK is “increase”. Further, in the experiment with TGF-β1, the “mRNA expression of TGF-β1” value is “inhibited”. In the experiment with Bcl-2, the “expression of the apoptosis inhibiting protein Bcl-2” value is reported as “increase”. Moreover, the “expression of the apoptosis-related protein Bax” value in the experiment with Bax is on record as “decrease”. For the same substance, in the experiment on keratin-14, the “mRNA expression of keratin-14” value was “increased”.
Take Ile-Tyr-Phe-Tyr (IYFY) [SEQ ID NO: 2]: the “growth” value in [1] was “stimulated in a dose-dependent manner”. In addition, the “nuclear translocation due to the increase in activity of β-catenin” value in the experiment on β-catenin is given as “stimulated”. Moreover, the “mRNA expression of VEGF” value in the experiment on VEGF is given as “increased”. Besides, the PI3K expression entry in the experiment with PI3K is “increase”. Moreover, the ERK phosphorylation entry with ERK was “increase”. Moreover, in the experiment with MSX2, the “mRNA expression of MSX2” value is “stimulated”. The “mRNA expression of TGF-β1” value in the experiment with TGF-β1 is “inhibited”.
Take KKFIQQVYLAI [SEQ ID NO: 3]: the “growth” value in experiment [1] is given as “stimulated in a dose-dependent manner”. The “nuclear translocation due to the increase in activity of β-catenin” value with β-catenin is “stimulated”. The “mRNA expression of bFGF” value in the experiment with bFGF is recorded as “increased”. In addition, in the experiment with VEGF, the “mRNA expression of VEGF” value is “increased”. In addition, in the experiment on PI3K, the PI3K expression entry is given as “increase”. In addition, the ERK phosphorylation entry with ERK is on record as “increase”. Further, the “mRNA expression of MSX2” value with MSX2 was “stimulated”. Moreover, the “expression of the apoptosis inhibiting protein Bcl-2” value with Bcl-2 is on record as “increase”. Besides, the “expression of the apoptosis-related protein Bax” value with Bax is on record as “decrease”.
